From ChEMBL document CHEMBL3046376, “Epimerization of epigallocatechin gallate to gallocatechin gallate and its anti-diabetic activity” (2013) come the findings set out here.

Active and inactive are the calls of the source. The rule behind the calls is not given here.

In assay [1] the test system is Rattus norvegicus. The assay can be described thus: Antidiabetic activity in Sprague-Dawley Rattus norvegicus (rat) assessed as STZ-induced fasting plasma insulin level at 5% administered QD for 12 weeks (reference value: 13.5 +/- 1.6 uU/ml). The assay is classed as functional.
Assay [2] relates to Rattus norvegicus. Nature of the assay: Antidiabetic activity in Sprague-Dawley Rattus norvegicus (rat) STZ-induced diabetic model assessed as decrease in oral glucose-induced plasma insulin level at 5% administered QD for 6 weeks prior to glucose-challenge measured after 120 min by oral glucose tolerance test relative to control. The format is functional, organism-based.
In assay [3] the test system is Rattus norvegicus. Nature of the assay: Antidiabetic activity in Sprague-Dawley Rattus norvegicus (rat) assessed as STZ-induced fasting plasma triglyceride level at 5% administered QD for 12 weeks (reference value: 54.4 +/- 12.3 […]). The format is functional.
In assay [4] the test system is Rattus norvegicus. The assay can be described thus: Antidiabetic activity in Sprague-Dawley Rattus norvegicus (rat) STZ-induced diabetic model assessed as decrease in oral glucose-induced plasma glucose level at 5% administered QD for 12 weeks prior to glucose-challenge measured after 120 min by oral glucose tolerance test relative to control. The format is functional, organism-based.

The subject of assay [5] is Rattus norvegicus. Nature of the assay: Antidiabetic activity in Sprague-Dawley Rattus norvegicus (rat) assessed as STZ-induced body weight at 5% administered QD for 12 weeks (reference value: 268.6 +/- 9.3 g). The format is functional.
The test system of assay [6] is Rattus norvegicus. Nature of the assay: Antidiabetic activity in Sprague-Dawley Rattus norvegicus (rat) STZ-induced diabetic model assessed as decrease in oral glucose-induced plasma glucose level at 5% administered QD for 6 weeks prior to glucose-challenge measured after 120 min by oral glucose tolerence test relative to control. The assay is classed as functional, organism-based.

Assay [7] has as its system Rattus norvegicus. Nature of the assay: Antidiabetic activity in Sprague-Dawley Rattus norvegicus (rat) assessed as STZ-induced fasting plasma glucose level at 5% administered QD for 12 weeks (reference value: 318.4 +/- 11.9 mg/dl). The format is functional.
Assay [8] concerns Rattus norvegicus. Nature of the assay: Antidiabetic activity in Sprague-Dawley Rattus norvegicus (rat) STZ-induced diabetic model assessed as decrease in oral glucose-induced plasma insulin level at 5% administered QD for 12 weeks prior to glucose-challenge measured after 120 min by oral glucose tolerance test relative to control. The assay is classed as functional, organism-based.

For assay [9], the system named is Rattus norvegicus. The assay can be described thus: Antidiabetic activity in Sprague-Dawley Rattus norvegicus (rat) assessed as STZ-induced fasting plasma free fatty acid level at 5% administered QD for 12 weeks (reference value: 230.8 +/- 16.6 uM). The format is functional.

For the compound `O=C(O[C@@H]1Cc2c(O)cc(O)cc2O[C@H]1c1cc(O)c(O)c(O)c1)c1cc(O)c(O)c(O)c1` [GALLOCATECHIN GALLATE], the Activity was 8.5 uU/ml in the assay with Rattus norvegicus [1]; 38.3 mg/dL in the assay with Rattus norvegicus [3]; 247.7 g in the assay on Rattus norvegicus [5]; 154.3 mg/dL in the assay on Rattus norvegicus [7]; 133.5 µM in the assay on Rattus norvegicus [9]. The result in the assay with Rattus norvegicus [2], with Rattus norvegicus [4], in the assay with Rattus norvegicus [6] and in the assay on Rattus norvegicus [8] was Active.

Consider `O=C(O[C@@H]1Cc2c(O)cc(O)cc2O[C@@H]1c1cc(O)c(O)c(O)c1)c1cc(O)c(O)c(O)c1` [EPIGALOCATECHIN GALLATE], for which the Activity came out at 10.2 uU/ml with Rattus norvegicus [1]; 47.9 mg/dL in the assay on Rattus norvegicus [3]; 251.5 g with Rattus norvegicus [5]; 169.6 mg/dL in the assay with Rattus norvegicus [7]; 151.1 µM in the assay with Rattus norvegicus [9]. In addition, the outcome in the assay with Rattus norvegicus [2], with Rattus norvegicus [4], with Rattus norvegicus [6] and in the assay with Rattus norvegicus [8] was Active.
